Experimental data taken from US20190321291A1, “3D Printing and Drug Delivery” (Biogelx Limited, priority 2016, published 2019).
Values joined by “and” are separate entries in the source; they are usually repeats but may differ in a detail not shown here. Equal values may be shown once.

Experiment: Drug release assay from Fmoc-FF/S hydrogel into PBS release buffer, HPLC analysis
Type: physicochemical
Conditions: for release profile from the hydrogel compared with control PBS solution: Fmoc-FF/S hydrogel; for duration of sustained release from the gel: 7-day study; for time over which significant drug concentration continued to be released: gel
Protocol: (§1) An 1100 Series high-performance liquid chromatography pump (Agilent, USA) was used for the analysis which was performed using acetonitrile with 0.1% TFA and water with 0.1% TFA. […] This concentration was kept constant until 16 mins; after that the gradient was decreased, reaching 40% (v/v) acetonitrile in water at 19 mins. The data was then processed manually using the software ‘Agilent Chemstation.’
The triplicate samples of release buffer were analysed by HPLC, and for the peaks corresponding to each model drug compound the peak area was measured. The average peak area was recorded, and using a standard curve prepared for each compound the concentration of each was determined.
At each of the specified time points the release buffer remaining in the wells was transferred to HPLC vials and stored at 4° C. until HPLC analysis was performed.
as §1, with “mins when” for “mins; after that”, “decreased to” for “decreased, reaching”
The triplicate samples of release buffer were analysed by HPLC, and for the peaks corresponding to each model drug compound the peak area was measured. The average peak area was recorded, and using standard curve prepared for each compound the concentration of each was determined.

[1] = 30 min, 2 mM control solution of drug in PBS, release buffer PBS 37° C.
[2] = 30 min, drug in Fmoc-FF/S gel, release buffer PBS 37° C.

Row | SMILES | release profile from the hydrogel compared with control PBS solution | duration of sustained release from the gel (Fmoc-FF/S gel) | release time from the control insert (control solution in PBS) [h] | Concentration (ug/mL) Control [1] [µg/mL] | Concentration (ug/mL) Gel [2] [µg/mL] | Concentration (ug/mL) Gel (3 h, Fmoc-FF/S gel) [µg/mL] | Concentration (ug/mL) Control (3 h, control solution in PBS) [µg/mL] | Concentration (ug/mL) Gel (6 h, Fmoc-FF/S gel) [µg/mL] | Concentration (ug/mL) Control (6 h, control solution in PBS) [µg/mL] | Concentration (ug/mL) Gel (9 h, Fmoc-FF/S gel) [µg/mL] | Concentration (ug/mL) Control (9 h, control solution in PBS) [µg/mL] | Concentration (ug/mL) Gel (24 h, Fmoc-FF/S gel) [µg/mL] | Concentration (ug/mL) Control (24 h, control solution in PBS) [µg/mL] | Concentration (ug/mL) Gel (48 h, Fmoc-FF/S gel) [µg/mL] | Concentration (ug/mL) Control (48 h, control solution in PBS) [µg/mL] | Concentration (ug/mL) Gel (72 h, Fmoc-FF/S gel) [µg/mL] | Concentration (ug/mL) Control (72 h, control solution in PBS) [µg/mL] | Concentration (ug/mL) Gel (5 d, Fmoc-FF/S gel) [µg/mL] | Concentration (ug/mL) Control (5 d, control solution in PBS) [µg/mL] | Concentration (ug/mL) Gel (7 d, Fmoc-FF/S gel) [µg/mL] | other results
1 | CC[C@H](C)C(=O)O[C@H]1C[C@H](O)C=C2C=C[C@H](C)[C@H](CC[C@@H](O)C[C@@H](O)CC(=O)O)[C@H]21 [Pravastatin] | slower |  |  |  |  |  |  |  |  |  |  |  |  |  |  |  |  |  |  |  | 
2 | CC(C)n1c(/C=C/[C@H](O)C[C@H](O)CC(=O)O)c(-c2ccc(F)cc2)c2ccccc21 (racemic) [Fluvastatin] | slower |  |  |  |  |  |  |  |  |  |  |  |  |  |  |  |  |  |  |  | 
3 | C=C[C@H]1C[N@]2CC[C@H]1C[C@@H]2[C@@H](O)c1ccnc2ccc(OC)cc12 [Quinidine] |  | 7 days | 9 |  |  |  |  |  |  |  |  |  |  |  |  |  |  |  |  |  | drug still present in the remaining gel residue at the end of the experiment (10 mM Fmoc-FF/S gel, HPLC, end of 7-day study): 4.5%; total release corresponding to control results (control solution in PBS): 85%
4 | CC(C)NCC(O)COc1ccc(CCOCC2CC2)cc1 (stereo not drawn) [Betaxolol] |  | 5 days | 9 | 10.34 | 0.67 | 9.08 | 22.71 | 6.37 | 0.90 | 2.98 | 0.07 | 5.15 | 0 | 1.49 | 0 | 0.27 | 0 | 0.11 | 0 | 0 | release time from the gel (10 mM Fmoc-FF/S gel): 5 days; Concentration (ug/mL) Control (7 d, control solution in PBS): 0 µg/mL
5 | CC(C)NCC(O)c1ccc(NS(C)(=O)=O)cc1 (stereo not drawn) [Sotalol] | slower |  |  |  |  |  |  |  |  |  |  |  |  |  |  |  |  |  |  |  | 
6 | CC(C)NCC(O)COc1cccc2ccccc12 (stereo not drawn) [Propranolol] | altered significantly | > 7 days and 7 days |  | 17.8 | 0.03 | 7.02 | 36.4 | 5.38 | 0.06 | 4.61 | 0 | 7.78 | 0 | 7.49 | 0 | 4.02 | 0 | 3.81 | 0 | 2.05 | Concentration (ug/mL) Control (7 d, control solution in PBS): 0 µg/mL; time by which drug release was below measurable limits (control): ≤ 9 h; time over which significant drug concentration continued to be released (concentration of the peptides 10 mM): ≥ 72 h; time over which significant drug concentration continued to be released (concentration of the peptides 40 mM): ≥ 72 h
